What all share (type): biochemical
The target of one assay is T1, MMP-2 (Homo sapiens, UniProt P08253).
T1 construct: gift of Prof; Gillian Murphy (Oncology Department, Cambridge University, UK)
T1 sequence (P08253 110-660): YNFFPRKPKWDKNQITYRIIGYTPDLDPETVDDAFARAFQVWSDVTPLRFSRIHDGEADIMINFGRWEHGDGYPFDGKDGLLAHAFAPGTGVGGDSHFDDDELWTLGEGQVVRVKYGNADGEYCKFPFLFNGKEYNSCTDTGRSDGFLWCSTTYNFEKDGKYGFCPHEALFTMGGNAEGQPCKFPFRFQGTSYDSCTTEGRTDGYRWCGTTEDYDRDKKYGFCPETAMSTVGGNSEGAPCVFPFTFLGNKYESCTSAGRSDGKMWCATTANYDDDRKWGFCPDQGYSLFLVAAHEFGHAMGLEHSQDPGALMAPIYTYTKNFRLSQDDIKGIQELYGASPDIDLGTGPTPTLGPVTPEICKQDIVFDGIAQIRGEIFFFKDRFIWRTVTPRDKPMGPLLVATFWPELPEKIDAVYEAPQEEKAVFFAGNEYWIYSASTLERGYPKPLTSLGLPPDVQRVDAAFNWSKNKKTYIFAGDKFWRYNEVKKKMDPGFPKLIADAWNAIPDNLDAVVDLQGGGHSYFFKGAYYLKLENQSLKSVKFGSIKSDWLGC
As to the kind of experiment: In vitro fluorometric inhibition assay of MMPs: MMP-2. The procedure: (§1) Analysis of the In Vitro Inhibition Activity of Zinc Metalloproteinases: In Vitro Inhibition of MMMPs
(§2) The human recombinant Progelatinase A (pro-MMP-2), B (pro-MMP-9), MMP-14cd and MMP-16cd, were provided by Prof. Gillian Murphy (Oncology Department, Cambridge University, UK); pro-MMP-1, pro-MMP-3, pro-MMP-7, pro-MMP-8, pro-MMP-13 and pro-MMP-14 were bought from Calbiochem. The proenzymes were activated immediately before the use with p-aminophenylmercuric acetate (APMA 2 mM for 1 h at 37° C. for MMP-1, MMP-2 and MMP-8, 1 mM for 1 h at 37° C. for MMP-9 and MMP-7, 1 mM for 30 min at 37° C. for MMP-13). Pro-MMP-14 and pro-MMP-3 were activated with trypsin 5 μg/ml for 15 min at 37° C. followed the soybean trypsin inhibitor (SBTI) 23 μg/ml for pro-MMP-14 and 62 μg/ml for pro-MMP-3. The catalytic domains of MMP-14 and MMP-16 were utilized without activation.
(§3) For the assay measurements, the stock solutions of the inhibitor (DMSO, 100 mM) were further diluted up to 7 different concentrations (0.01 nM-300 μM) for each MMP, in the buffer for the fluorometric assay (FAB: Tris 50 mM, pH=7.5, NaCl 150 mM, CaCl2 10 mM, Brij 35 0.05% and DMSO 1%). The solutions of activated enzyme (final concentrations 2.9 nM for MMP-2, 2.7 nM for MMP-9, 2.4 nM for MMP-7, 1 nM for MMP-14 and MMP-3, 1.5 nM for MMP-8 and MMP-16cd, 0.84 nM for MMP-14cd, 0.66 nM for MMP-13 and 0.20 nM for MMP-1) and of inhibitor were incubated in the assay buffer for 4 h at 25° C. After the addition of solution of fluorogenic substrate 200 μM Mca-Arg-Pro-Lys-Pro-Val-Glu-Nva-Trp-Arg-Lys(Dnp)-NH2 (Sigma) for MMP-3 and Mca-Lys-Pro-Leu-Gly-Leu-Dpa-Ala-Arg-NH2 (Bachem) for all the other enzymes in DMSO (final concentration 2 μM), the hydrolysis were monitored every 15 sec for 20 min, recording the increase in fluorescence (λex=325 nm, λem=400 nm) with a Molecular Device SpectraMax Gemini XS plates reader. The assays were made in triplicate in a total volume of 200 μl per well on 96 well-plates for microtitolation (Corning, black, NBS). The control wells were without inhibitor.
(§4) The inhibition activity of MMP was expressed in relative fluorescence unit (RFU). The percentage of inhibition was calculated using control reactions without inhibitor.
(§5) IC50 was determined using the formula: Vi/Vo=1/(1+[I]/IC50), wherein Vi is the initial rate of the substrate scission in presence of the inhibitor at the concentration [I] and Vo is the initial rate in the absence of inhibitor. The results were analyzed with the SoftMax Pro software and the GraFit software.

The target in a further assay is T2, TACE (ADAM17) (Homo sapiens, UniProt P78536).
T2 construct: purchased CalBiochem
Nature of the assay: Inhibition of ADAMs: activity on TACE (ADAM17), fluorometric assay. As to the method: Inhibition of ADAMS: Activity on TACE (ADAM17) Method 1: (only TACE)
The human recombinant TACE, from CalBiochem, was dissolved in FAB buffer (Tris 50 mM, pH=7.5, NaCl 150 mM, CaCl2 10 mM, Brij 35 0.05% and DMSO 1%) at the concentration of 200 μg/mL (2.85 μM) as stock solution. For the assay measurements, the stock solutions of the inhibitor (DMSO, 100 mM) were further diluted up to seven different concentrations (0.01 nM-300 μM) in FAB buffer. A solution of the enzyme (final concentration 3 nM) and the solutions of the inhibitors at different concentrations were incubated in FAB for 20 minutes at 25° C. After the addition of a 200 μM solution of the substrate Mca-Lys-Pro-Leu-Gly-Leu-Dap(Dnp)-Ala-Arg-NH2 (Bachem) in DMSO (final concentration 2 μM), the hydrolysis was monitored for 20 min, recording the increase in fluorescence (λex=325 nm, λem=400 nm) using a Molecular Device SpectraMax Gemini XS plates reader. The assays were made in triplicate in a total volume of 200 μl per well, on 96 well microplates (Corning, black, NBS). The inhibition activity of TACE was expressed in relative fluorescent units (RFU). The percentage of inhibition was calculated based in respect to the blanks control without inhibitor. The IC50 was determined following the equation: Vi/Vo=1/(1+[I]/IC50), where Vi is the initial rate of the hydrolysis of the substrate in the presence of the inhibitor at the concentration [I] and Vo is the initial rate in the absence of inhibitor. The results were analysed using the software SoftMax Pro and GraFit.

In another assay the target is T3, MMP-1 (Homo sapiens, UniProt P03956).
T3 construct: purchased Calbiochem
T3 sequence (P03956 100-469): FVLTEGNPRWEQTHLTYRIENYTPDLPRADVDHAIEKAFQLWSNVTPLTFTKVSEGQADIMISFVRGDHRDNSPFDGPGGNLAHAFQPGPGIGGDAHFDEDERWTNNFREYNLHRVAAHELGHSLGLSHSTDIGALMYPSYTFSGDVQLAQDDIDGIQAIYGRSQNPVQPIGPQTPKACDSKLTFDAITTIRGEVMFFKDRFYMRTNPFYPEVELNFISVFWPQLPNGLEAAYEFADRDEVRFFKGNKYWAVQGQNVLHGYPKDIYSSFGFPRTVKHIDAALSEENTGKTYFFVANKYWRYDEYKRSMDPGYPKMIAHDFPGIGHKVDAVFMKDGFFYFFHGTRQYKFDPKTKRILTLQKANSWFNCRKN
As to the kind of experiment: In vitro fluorometric inhibition assay of MMPs: MMP-1. The settings on record: Table I. The procedure: as §1, §2, §3, §4, §5

The target of another assay is T4, MMP-9 (Homo sapiens, UniProt P14780).
T4 construct: gift of Prof; Gillian Murphy (Oncology Department, Cambridge University, UK)
As to the kind of experiment: In vitro fluorometric inhibition assay of MMPs: MMP-9. The procedure: as §1
The human recombinant Progelatinase A (pro-MMP-2), B (pro-MMP-9), MMP-14cd and MMP-16cd, were provided by Prof. Gillian Murphy (Oncology Department, Cambridge University, UK); pro-MMP-1, pro-MMP-3, pro-MMP-7, pro-MMP-8, pro-MMP-13 and pro-MMP-14 were bought from Calbiochem. […] Pro-MMP-14 and pro-MMP-3 were activated with trypsin 5 μg/ml for 15 min at 37° C. followed the soybean trypsin inhibitor (SBTI) 23 μg/ml for pro-MMP-14 and 62 μg/ml for pro-MMP-3. The catalytic domains of MMP-14 and MMP-16 were utilized without activation.
as §3, with “The solutions of activated enzyme (final concentrations 2.9 nM for MMP-2, 2.7 nM for MMP-9, 2.4 nM for MMP-7, 1 nM for MMP-14 and MMP-3, 1.5 nM for MMP-8 and MMP-16cd, 0.84 nM for MMP-14cd, 0.66 nM for MMP-13 and 0.20 nM for MMP-1) and of inhibitor were incubated in the assay buffer for 4 h at 25° C.” left out
as §4, §5

T2 sequence (P78536 215-671 limits assumed): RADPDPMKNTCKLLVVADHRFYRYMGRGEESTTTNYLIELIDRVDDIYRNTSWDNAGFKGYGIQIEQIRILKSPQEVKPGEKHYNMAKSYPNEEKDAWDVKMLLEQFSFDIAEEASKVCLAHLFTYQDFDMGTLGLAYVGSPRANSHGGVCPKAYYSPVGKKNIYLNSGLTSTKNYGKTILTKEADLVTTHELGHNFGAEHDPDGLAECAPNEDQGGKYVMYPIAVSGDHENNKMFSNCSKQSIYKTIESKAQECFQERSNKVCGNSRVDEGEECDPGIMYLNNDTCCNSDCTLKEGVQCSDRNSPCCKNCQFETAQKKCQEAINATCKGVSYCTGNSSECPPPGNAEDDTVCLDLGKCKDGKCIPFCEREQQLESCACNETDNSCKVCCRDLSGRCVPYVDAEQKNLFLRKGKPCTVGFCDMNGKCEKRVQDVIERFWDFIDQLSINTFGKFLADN
T4 sequence (P14780 107-707 limits assumed): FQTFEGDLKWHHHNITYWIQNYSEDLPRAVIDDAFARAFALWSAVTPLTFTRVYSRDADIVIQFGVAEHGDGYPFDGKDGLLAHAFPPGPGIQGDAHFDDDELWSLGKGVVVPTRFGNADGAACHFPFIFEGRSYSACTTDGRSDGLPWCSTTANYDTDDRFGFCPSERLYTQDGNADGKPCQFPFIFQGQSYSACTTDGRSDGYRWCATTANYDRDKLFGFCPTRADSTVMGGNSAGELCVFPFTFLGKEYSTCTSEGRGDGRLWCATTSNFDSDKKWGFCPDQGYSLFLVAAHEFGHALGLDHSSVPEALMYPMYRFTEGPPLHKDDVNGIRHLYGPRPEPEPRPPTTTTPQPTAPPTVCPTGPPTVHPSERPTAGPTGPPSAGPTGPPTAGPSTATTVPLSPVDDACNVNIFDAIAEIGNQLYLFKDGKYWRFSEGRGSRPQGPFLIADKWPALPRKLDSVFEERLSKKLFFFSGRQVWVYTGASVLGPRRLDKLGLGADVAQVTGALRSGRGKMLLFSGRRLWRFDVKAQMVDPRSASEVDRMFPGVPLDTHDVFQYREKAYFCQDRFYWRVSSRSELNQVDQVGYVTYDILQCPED

Usually IC50 stands for the point on the concentration scale where inhibition reaches its midpoint. High values mean weaker potency in that assay, low ones greater potency in that assay. Turning to `COc1ccc(Sc2ccccc2CC(=O)NO)cc1` [Compound 21b, N-hydroxy-2-(2-(4-methoxyphenylthio)phenyl)acetamide], the figures for the concentration for half-maximal inhibition (IC50) on MMP-2 (Table IV) and against TACE (ADAM17) (Table IV) were 6.2 ± 0.3 µM and 10.2 ± 0.67 µM, respectively.
Turning to `CC#CCOc1ccc(Sc2ccccc2CC(=O)NO)cc1` [Compound 21c, 2-(2-(4-(but-2-iniloxy)phenylthio)phenyl)-N-hydroxyacetamide], the results for the IC50 against MMP-2 (text b547) and at TACE (ADAM17) (text b547) were 1.45 ± 0.033 µM and 0.462 ± 0.021 µM, respectively.
Consider `O=C(Cc1ccccc1Sc1ccc(-c2ccccc2)cc1)NO` [Compound 21a], for which the IC50 against MMP-1 (cells marked (*)) came out at 171 ± 5 µM; at MMP-2 (Table I, cells marked (*)), 0.0411 ± 0.0014 µM; against MMP-9 (Table I, cells marked (*)), 1.2 ± 0.2 µM; on TACE (ADAM17) (Table IV), 13.4 ± 1.93 µM.
In the case of `O=C(O)Cc1ccccc1Sc1ccc(-c2ccccc2)cc1`, the IC50 on MMP-1 (cells without (*)) was 334 ± 5.7 µM; at MMP-2 (Table I, cells without (*)), 0.33 ± 0.026 µM; at MMP-9 (Table I, cells without (*)), 6.7 ± 0.3 µM.
Regarding `COc1ccc(-c2ccc(Sc3ccccc3CC(=O)NO)cc2)cc1` [Compound 24, N-hydroxy-2-(2-(4′-methoxybiphenyl-4-ylthio)phenyl)acetamide], the half-maximal inhibitory concentration (IC50) turned out to be 0.0068 ± 0.00053 µM at MMP-2 (Table I, cells marked (*)); 0.0068 ± 0.00053 µM against MMP-2 (Table IV); 0.12 ± 0.017 µM against MMP-9 (Table I, cells marked (*)); 0.12 ± 0.017 µM against MMP-9 (Table IV); 46.2 ± 5.34 µM at TACE (ADAM17) (Table IV).
Regarding `O=C(O)CC(C(=O)O)c1ccccc1Sc1ccc(-c2ccccc2)cc1` (stereo not shown), the IC50 on MMP-1 (cells without (*)) amounted to 189 ± 28 µM; against MMP-2 (Table I, cells without (*)) it was 11 ± 1.1 µM; at MMP-9 (Table I, cells without (*)) it was 95 ± 8.7 µM.

These data come from US8093386B2, “Thioaryl substituted inhibitors of zinc proteases and their use” (Bracco Imaging S.p.A, priority 2006, dated 2012).
